For 10 compounds, GI50 and TGI results are on record in PubChem BioAssay (NCI).

Some test systems named below: HL-60(TB) leukemia; MALME-3M melanoma; OVCAR-4 ovarian; OVCAR-8 ovarian; SK-MEL-28 melanoma; SK-OV-3 ovarian; T-47D breast; UACC-257 melanoma.
Common to all, as to assay: NCI anticancer screen, dose series, 48 h

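Five compound concentrations were applied to cells in 96-well plates for 48 hours; endpoints were derived by simple linear interpolation of the resulting dose-response curve. At the GI50, growth is halved. At the TGI there is no net growth.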

Consider `O=C(Nc1ccncc1)C(=O)c1cn(S(=O)(=O)c2ccc(Cl)cc2)c2ccccc12`, for which the GI50 with HL-60(TB) leukemia is 401 nM; with MALME-3M melanoma it was 894 nM; in the test on OVCAR-4 ovarian it was 3.89 µM; in the test on OVCAR-8 ovarian, 1.63 µM; in the test with SK-MEL-28 melanoma, 1.06 µM; in the test on SK-OV-3 ovarian, 19.6 µM. The GI50 was 0.905 µM with T-47D breast and 1.1 µM in the test on UACC-257 melanoma. The TGI in the test on MALME-3M melanoma is more than 100 µM; in the test with OVCAR-4 ovarian, more than 70.3 µM; in the test on OVCAR-8 ovarian, 97.1 µM; in the test on SK-MEL-28 melanoma, more than 50.4 µM; in the test on SK-OV-3 ovarian it was 73.8 µM; in the test on T-47D breast, more than 100 µM. The TGI in the test with UACC-257 melanoma was more than 100 µM.

Take `c1ccc(CN2COc3c(ccc4c3OCN(Cc3ccccc3)C4)C2)cc1`: the GI50 in the test on HL-60(TB) leukemia is 2330 nM; with MALME-3M melanoma it was 3060 nM; with OVCAR-4 ovarian, 0.333 µM; with OVCAR-8 ovarian it was 0.391 µM; with SK-MEL-28 melanoma, 1.26 µM; in the test on SK-OV-3 ovarian it was 0.639 µM. In addition, the GI50 in the test with T-47D breast was 0.96 µM; in the test on UACC-257 melanoma it was 0.763 µM. For the same compound, the TGI with HL-60(TB) leukemia was 7.52 µM; with MALME-3M melanoma, more than 100 µM; with OVCAR-4 ovarian it was more than 100 µM; with OVCAR-8 ovarian, more than 100 µM; with SK-MEL-28 melanoma, more than 100 µM; in the test with SK-OV-3 ovarian, more than 100 µM. Also, the values for the TGI in the test on T-47D breast and with UACC-257 melanoma were more than 100 µM and 6.53 µM, respectively.

Consider `C[As](C)SCC(COC(=O)C(Cl)c1ccccc1)OC(=O)C(Cl)c1ccccc1` (stereo unspecified), for which the GI50 with HL-60(TB) leukemia is 418 nM; with MALME-3M melanoma, 139 nM; with OVCAR-4 ovarian, 4.38 µM; in the test with OVCAR-8 ovarian, 3.41 µM; with SK-MEL-28 melanoma, 10.6 µM; in the test on SK-OV-3 ovarian, 2.63 µM. In addition, the GI50 in the test with T-47D breast is 17.1 µM; in the test with UACC-257 melanoma, 0.332 µM. Besides, the TGI with MALME-3M melanoma was 1.44 µM; in the test on OVCAR-4 ovarian, 18 µM; in the test with OVCAR-8 ovarian it was more than 35.2 µM; with SK-MEL-28 melanoma, 28.1 µM; with SK-OV-3 ovarian, more than 54.9 µM; in the test with T-47D breast it was more than 45.8 µM. The same compound yielded a TGI with UACC-257 melanoma of 12.6 µM.

Consider `CC1CCCC(C(O)CC2CC(=O)NC(=O)C2)C1O` (stereo unspecified), for which the TGI with HL-60(TB) leukemia, in the test on MALME-3M melanoma, with OVCAR-4 ovarian, in the test on OVCAR-8 ovarian, with SK-MEL-28 melanoma and in the test with SK-OV-3 ovarian was more than 100 µM each time. The TGI in the test on T-47D breast and with UACC-257 melanoma was more than 100 µM each time.

Regarding `COc1cc(NCCCN=C(N)NC(N)=NC(C)C)c2ncccc2c1`, the GI50 in the test on HL-60(TB) leukemia is 10800 nM; in the test on MALME-3M melanoma, 813 nM; with OVCAR-4 ovarian, 0.0588 µM; with OVCAR-8 ovarian, 23.5 µM; in the test on SK-MEL-28 melanoma, 13.6 µM; in the test on SK-OV-3 ovarian, more than 74.8 µM. The GI50 in the test on T-47D breast is 1.58 µM; with UACC-257 melanoma, 4.31 µM. For the same compound, the TGI is 31.8 µM in the test on HL-60(TB) leukemia; 4.1 µM in the test with MALME-3M melanoma; 1.64 µM in the test on OVCAR-4 ovarian; more than 87.1 µM in the test with OVCAR-8 ovarian; 35.2 µM in the test on SK-MEL-28 melanoma; more than 100 µM in the test on SK-OV-3 ovarian. In the test with UACC-257 melanoma, this compound registered a TGI of 16.5 µM.

For `C#Cc1c(/C=C/C(=O)OCC)ccc2ccccc12`, the GI50 with HL-60(TB) leukemia is 10600 nM; with MALME-3M melanoma it was 13100 nM; in the test with OVCAR-4 ovarian it was 20.7 µM; in the test with OVCAR-8 ovarian it was 35.1 µM; in the test on SK-MEL-28 melanoma, 13.7 µM; in the test on SK-OV-3 ovarian it was 58.8 µM. In addition, the GI50 with T-47D breast was 42.8 µM; in the test with UACC-257 melanoma it was 27.4 µM. Also, the TGI with HL-60(TB) leukemia is 26.1 µM; in the test with MALME-3M melanoma, 41.2 µM; with OVCAR-4 ovarian, 69.1 µM; with OVCAR-8 ovarian, more than 100 µM; in the test on SK-MEL-28 melanoma, 39.7 µM; in the test with SK-OV-3 ovarian, more than 100 µM. The TGI in the test on T-47D breast and in the test on UACC-257 melanoma was more than 100 µM in each case.

For the compound `CC(C)O/N=C/c1cc(NC(=S)OC(C)C)ccc1Cl`, the TGI was 57.6 µM in the test on HL-60(TB) leukemia; more than 100 µM in the test with MALME-3M melanoma; more than 88.8 µM in the test with OVCAR-4 ovarian; more than 90.3 µM in the test on OVCAR-8 ovarian; more than 91.8 µM in the test with SK-MEL-28 melanoma; 98.3 µM in the test on SK-OV-3 ovarian. Also, the TGI in the test with T-47D breast and with UACC-257 melanoma was more than 100 µM each time.

For the compound `COCc1cc(C(=O)Nc2cc([C@H]3CC[C@@H](OC(=O)NC(C)C)C3)[nH]n2)n(C)n1`, the GI50 was 2550 nM in the test with HL-60(TB) leukemia; 24200 nM in the test on MALME-3M melanoma; 4.89 µM in the test on OVCAR-4 ovarian; 10.9 µM in the test with OVCAR-8 ovarian; 14.9 µM with SK-MEL-28 melanoma; 28.6 µM in the test on SK-OV-3 ovarian. Besides, the values for the GI50 in the test on T-47D breast and in the test on UACC-257 melanoma were 9.71 µM and 25.9 µM, respectively. Moreover, the TGI with HL-60(TB) leukemia is 11.4 µM; in the test on MALME-3M melanoma it was 74.1 µM; in the test on OVCAR-4 ovarian, 77.2 µM; in the test on OVCAR-8 ovarian it was more than 100 µM; in the test on SK-MEL-28 melanoma, 85 µM; in the test on SK-OV-3 ovarian, 96.2 µM. For the same compound, the values for the TGI in the test with T-47D breast and in the test on UACC-257 melanoma were 89 µM and more than 100 µM, respectively.

Regarding `Oc1ccc(-c2nc3ccccc3s2)cc1CN(Cc1ccccn1)Cc1ccccn1`, the GI50 was 2140 nM with HL-60(TB) leukemia; 1800 nM in the test on MALME-3M melanoma; 0.787 µM with OVCAR-4 ovarian; 0.52 µM with OVCAR-8 ovarian; 2.35 µM with SK-MEL-28 melanoma; 1.35 µM with SK-OV-3 ovarian. For the same compound, the GI50 with T-47D breast was 3.79 µM; in the test with UACC-257 melanoma, 3.1 µM. Also, the TGI was 13.3 µM with HL-60(TB) leukemia; 7.77 µM in the test on MALME-3M melanoma; 12.8 µM with OVCAR-4 ovarian; 13.4 µM in the test on OVCAR-8 ovarian; 15.3 µM with SK-MEL-28 melanoma; 43.5 µM in the test on SK-OV-3 ovarian. The values for the TGI in the test on T-47D breast and in the test on UACC-257 melanoma were 89.9 µM and 13 µM, respectively.

For the compound `NCCOCCOCCNc1nc(-c2ccccc2)nc(N2CCN(c3ccccn3)CC2)n1`, the GI50 is 9470 nM in the test on HL-60(TB) leukemia; 11300 nM in the test with MALME-3M melanoma; 13.4 µM with OVCAR-4 ovarian; 15.8 µM in the test on OVCAR-8 ovarian; 3.9 µM in the test with SK-MEL-28 melanoma; 18.8 µM in the test on SK-OV-3 ovarian. In addition, the GI50 is 11.7 µM with T-47D breast and 3.23 µM in the test with UACC-257 melanoma. In addition, the TGI came to 26.5 µM in the test on HL-60(TB) leukemia; 26.2 µM in the test on MALME-3M melanoma; 26.3 µM in the test on OVCAR-4 ovarian; 34.5 µM in the test on OVCAR-8 ovarian; 13.8 µM with SK-MEL-28 melanoma; 34.2 µM in the test on SK-OV-3 ovarian. Also, the values for the TGI in the test on T-47D breast and in the test with UACC-257 melanoma were 30.3 µM and 12.9 µM, respectively.
